Measurements as given in article PMC6548335 (ACS infectious diseases, 2019).
“Also recorded” adds a separate entry of the source.

How the values were obtained:
[1] = Hepatic microsomal stability; format: in vitro ADME; conditions: mouse, liver microsomes, pH 7.4
[2] = tested on: DENV2 NGC; test: microbe, parasite or virus in culture; format: cell-based, dengue virus 2 (BHK-21 cells); conditions: Dengue virus, DENV2, BHK-21, read-out: IC90 (μM) [DENV2 NGC)
[3] = tested on: BHK-21 cells; test: Cytotoxicity assay; format: cell-based, baby hamster; conditions: for CC5: 50% loss of BHK-21 cell viability; for CC50 relative to antiviral IC90: BHK-21 CC50 vs DENV2 IC90
[4] = tested on: malate dehydrogenase (MDH); test: Malate dehydrogenase; format: biochemical; conditions: presence and absence of Triton X-100
[5] = tested on: DENV2 S221; test: Viral infectivity assay, mouse-adapted DENV2 S221; conditions: Dengue virus, DENV2, BHK-21, read-out: antiviral IC90, DENV2 S221
[6] = tested on: DENV2 S221; test: Multi-cycle infection, DENV2 S221; conditions: 5 μM, MOI 0.01, supernatants at 48 and 72 hours post-infection
[7] = Pharmacokinetic study in mice; conditions: female, C57BL/6, mouse, intraperitoneal, 20 mg/kg
[8] = target: soluble, prefusion DENV2 envelope protein (sE2) (Dengue virus type 2, UniProt P14340); test: Biolayer interferometry binding to sE2; set-up: species or system dengue virus 2
[9] = tested on: E-mediated membrane fusion of DENV2, strain NGC; conditions: 0, 10, 50 μM compound, pH 5.3, Western blot
[10] = Plasma-protein binding; format: in vitro ADME

SMILES | half-life at 1 μM [1] | IC90 [2] | detergent-sensitive (non-specific) inhibition of MDH [4] | other results
CN1CCN(c2ccc(N/N=C(\C#N)C(=O)c3cc4ccccc4o3)cc2C(F)(F)F)CC1 [JBJ-01-162-01, (E)-2-(benzofuran-2-yl)-N-(4-(4-methylpiperazin-1-yl)-3-(trifluoromethyl)phenyl)-2-oxoacetohydrazonoyl cyanide] | 35.1 min |  |  | 
CN1CCN(c2cc(N/N=C(\C#N)C(=O)c3cc4ccccc4o3)cc(C(F)(F)F)c2)CC1 [JBJ-01-162-02, (E)-2-(benzofuran-2-yl)-N-(3-(4-methylpiperazin-1-yl)-5-(trifluoromethyl)phenyl)-2-oxoacetohydrazonoyl cyanide] | 73 min | 9 ± 2.8 µM | detergent-sensitive inhibition of malate dehydrogenase comparable to that of 3-110-22 | CC5 [3]: 24.5 ± 7.2 µM
N#C/C(=N\Nc1ccc(N2CCOCC2)c(C(F)(F)F)c1)C(=O)c1cc2ccccc2o1 [JBJ-01-162-03, (E)-2-(benzofuran-2-yl)-N-(4-morpholino-3-(trifluoromethyl)phenyl)-2-oxoacetohydrazonoyl cyanide] | > 120 min | 1.6 ± 0.7 µM | detergent-sensitive inhibition of malate dehydrogenase comparable to that of 3-110-22 | CC5 [3]: 32.5 ± 2.2 µM; CC50 relative to antiviral IC90 [3]: ≥ 20 fold
Cc1cn(-c2cc(N/N=C(\C#N)C(=O)c3cc4ccccc4o3)cc(C(F)(F)F)c2)cn1 [JBJ-01-162-04, (E)-2-(benzofuran-2-yl)-N-(3-(4-methyl-1H-imidazol-1-yl)-5-(trifluoromethyl)phenyl)-2-oxoacetohydrazonoyl cyanide] | 64.8 min | 1.5 ± 0.4 µM | lacks this non-specific activity; also recorded: Slight inhibition of MDH | IC90 [5]: 1400 ± 600 nM; reduction of viral yield in multi-cycle infection [6]: over 95%; CC50 relative to antiviral IC90 [3]: ≥ 20 fold; concentration at 4 h ([7]; liver): 37.2 µM; concentration at 12 h ([7]; liver): 13 µM; concentration at 4 h ([7]; plasma): 75.8 µM; concentration at 12 h ([7]; plasma): 2.9 µM; Kd [8]: 1400 ± 500 nM; inhibition of E-mediated fusion (protection of core from trypsin digestion), DENV2 [9]: inhibits E-mediated fusion of DENV2 in a concentration-dependent manner; also recorded: inhibits viral fusion in the liposome-based assay in a concentration-dependent manner; fraction unbound [10]: < 0.001
CCN1CCN(Cc2ccc(N/N=C(\C#N)C(=O)c3cc4ccccc4o3)cc2C(F)(F)F)CC1 [JBJ-01-162-05, (E)-2-(benzofuran-2-yl)-N-(4-((4-ethylpiperazin-1-yl)methyl)-3-(trifluoromethyl)phenyl)-2-oxoacetohydrazonoyl cyanide] | 29.9 min |  |  | 
N#C/C(=N\Nc1ccc(F)c(C(F)(F)F)c1)C(=O)c1cc2ccccc2o1 [JBJ-03-019-01, (E)-2-(benzofuran-2-yl)-N-(4-fluoro-3-(trifluoromethyl)phenyl)-2-oxoacetohydrazonoyl cyanide] | 7.6 min |  |  | 
N#C/C(=N\Nc1cc(F)cc(C(F)(F)F)c1)C(=O)c1cc2ccccc2o1 [JBJ-03-019-02, (E)-2-(benzofuran-2-yl)-N-(3-fluoro-5-(trifluoromethyl)phenyl)-2-oxoacetohydrazonoyl cyanide] | 8.6 min |  |  | 
